These results are taken from ChEMBL document CHEMBL1201862, “PubChem BioAssay data set” (2004).

The structures appear in SMILES notation.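 Interpolation was linear, between the two tested concentrations surrounding the appropriate level; five concentrations were tested over 48 hours in 96-well plates. The concentration for 50% growth inhibition is given as GI50.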 The source made the active and inactive calls. Cut-off read from the data, not from the text of the source: active = GI50 up to about 1.1 µM and inactive = higher.

Among the test systems are Hs-578T; A498; NCI-H522; SN12C; MDA-MB-435; COLO 205; 786-0; OVCAR-8; CAKI-1; Malme-3M; SNB-19; LOX IMVI; UACC-257; SF-539; SF-295; KM12; IGROV-1; U-251; TK-10; SR.
What all share (assay): NCI anticancer screen, dose series, 48 h

Consider `Cc1n2nc(N)sc2n[n+]1Cc1ccccc1`, for which the GI50 in the test on Hs-578T was > 100 µM (inactive); with A498, > 100 µM (inactive); in the test on NCI-H522, > 100 µM (inactive); with SN12C, > 100 µM (inactive); in the test with MDA-MB-435, > 100 µM (inactive); with COLO 205, 21.4 µM (inactive). Also, the GI50 with 786-0, in the test with OVCAR-8, in the test on CAKI-1, with Malme-3M, with SNB-19 and with LOX IMVI was > 100 µM (inactive) in each case. For the same compound, the GI50 is > 100 µM (inactive) in the test on UACC-257; > 100 µM (inactive) in the test with SF-539; > 100 µM (inactive) in the test on SF-295; > 100 µM (inactive) in the test with KM12; 58.9 µM (inactive) in the test with IGROV-1; 77.3 µM (inactive) in the test with U-251. Further, the GI50 in the test on TK-10 is > 100 µM (inactive).

In the case of `CC(C)(C)OC(=O)NCCNC(=O)OCc1ccccc1`, the GI50 with Hs-578T, with NCI-H522, in the test with SN12C, with MDA-MB-435, in the test with COLO 205 and in the test with 786-0 was > 100 µM (inactive) each time. Moreover, the GI50 in the test on OVCAR-8, in the test with CAKI-1, in the test on Malme-3M, in the test on SNB-19, in the test with UACC-257 and in the test on SR was > 100 µM (inactive) throughout. Besides, the GI50 with SF-539, with SF-295, in the test on KM12, in the test on IGROV-1, in the test with U-251 and with TK-10 was > 100 µM (inactive) throughout.

Regarding `CC(C)(C)C(=O)N(C(=S)OCc1ccccn1)c1ccccc1`, the GI50 is 39 µM (inactive) in the test with Hs-578T; > 100 µM (inactive) in the test on A498; 31.3 µM (inactive) in the test with SN12C; > 100 µM (inactive) in the test on MDA-MB-435; 21.8 µM (inactive) in the test with COLO 205; 35.8 µM (inactive) with 786-0. Besides, the GI50 was 31.6 µM (inactive) with OVCAR-8; 35.2 µM (inactive) with CAKI-1; 13.8 µM (inactive) in the test with Malme-3M; 59.6 µM (inactive) with SNB-19; 23.9 µM (inactive) in the test with LOX IMVI; > 100 µM (inactive) in the test on UACC-257. Also, the GI50 in the test with SF-539 is 20.4 µM (inactive); in the test on KM12 it was 26.4 µM (inactive); with IGROV-1 it was 19.9 µM (inactive); with U-251, 42 µM (inactive); with TK-10, > 100 µM (inactive).

With `Cc1ccc(S(=O)(=O)N(CC(O)c2ccccc2)c2ccccc2F)cc1` (stereo unspecified), the GI50 with Hs-578T is 16.9 µM (inactive); in the test on A498, 19.9 µM (inactive); in the test on NCI-H522, 17.3 µM (inactive); with SN12C, 17.8 µM (inactive); in the test on MDA-MB-435 it was 16.2 µM (inactive); in the test with COLO 205, 15.4 µM (inactive). Further, the GI50 was 17.6 µM (inactive) with 786-0; 19.3 µM (inactive) in the test with OVCAR-8; 15.7 µM (inactive) in the test with CAKI-1; 16.4 µM (inactive) in the test with Malme-3M; 18 µM (inactive) in the test with SNB-19; 16.1 µM (inactive) with LOX IMVI. The GI50 with UACC-257 was 4.65 µM (inactive); in the test on SF-539, 16.6 µM (inactive); with SF-295, 17.5 µM (inactive); in the test with KM12, 16.8 µM (inactive); in the test with IGROV-1, 21.7 µM (inactive); in the test on U-251, 19.5 µM (inactive). For the same compound, in the test on TK-10, the GI50 was 19.7 µM (inactive).

Turning to `CCOC(=O)c1ccc(Nc2nc3ccccc3nc2C(=O)OCC)cc1`, the GI50 in the test on Hs-578T was 59.6 µM (inactive); in the test with NCI-H522, > 100 µM (inactive); in the test on SN12C, > 100 µM (inactive); in the test with MDA-MB-435, > 100 µM (inactive); in the test with COLO 205 it was > 100 µM (inactive); in the test with 786-0 it was 57.7 µM (inactive). Also, the GI50 in the test with OVCAR-8, in the test with CAKI-1, in the test on Malme-3M, with SNB-19, in the test with SR and in the test on SF-539 was > 100 µM (inactive) each time. The GI50 was 75.5 µM (inactive) in the test on KM12, > 100 µM (inactive) in the test on IGROV-1, > 100 µM (inactive) in the test on U-251 and > 100 µM (inactive) in the test on TK-10.

With `N#Cc1c(-c2ccc(Cl)cc2)c(C#N)c(=O)n(NS(=O)(=O)c2ccccc2)c1O`, the GI50 is 19.7 µM (inactive) in the test with Hs-578T; 24.9 µM (inactive) in the test with A498; 27.9 µM (inactive) in the test with NCI-H522; 13.6 µM (inactive) in the test with SN12C; 34.3 µM (inactive) in the test with MDA-MB-435; 29.9 µM (inactive) with COLO 205. Moreover, the GI50 in the test with 786-0 is 29.8 µM (inactive); in the test on OVCAR-8, 28.8 µM (inactive); in the test with CAKI-1 it was 21 µM (inactive); with Malme-3M, 49 µM (inactive); in the test on SNB-19 it was 37 µM (inactive); in the test on LOX IMVI, 15.1 µM (inactive). Further, the GI50 was 27.7 µM (inactive) in the test with UACC-257; 20.7 µM (inactive) in the test on SF-539; 30.1 µM (inactive) in the test with SF-295; 23.7 µM (inactive) in the test with KM12; 24.2 µM (inactive) in the test with IGROV-1; 32.7 µM (inactive) in the test with U-251. The GI50 with TK-10 was 39.1 µM (inactive).

On to `N=C(CC(=O)NOC(=O)c1ccccc1)NOC(=O)c1ccccc1`, for which the GI50 in the test on Hs-578T was 36.2 µM (inactive); with A498 it was 31.4 µM (inactive); in the test with SN12C, 29.4 µM (inactive); with MDA-MB-435 it was 36.3 µM (inactive); in the test with COLO 205, 26.6 µM (inactive); in the test on 786-0, > 100 µM (inactive). The GI50 with OVCAR-8 is 27.9 µM (inactive); in the test on CAKI-1 it was 36.9 µM (inactive); with Malme-3M it was > 100 µM (inactive); in the test with SNB-19, 71.6 µM (inactive); in the test with LOX IMVI, 17.7 µM (inactive); in the test with UACC-257, > 100 µM (inactive). Besides, the GI50 in the test with SF-539 was 22.1 µM (inactive); in the test with SF-295, 18.4 µM (inactive); in the test with KM12, 46 µM (inactive); in the test on IGROV-1, 14.7 µM (inactive); in the test with U-251, 34.1 µM (inactive); in the test on TK-10, 52 µM (inactive).

Consider `COC(=O)C1=C(C(=O)OC)SC(=C2S[C@@H]3[C@@H]4C[C@H]([C@@H]3S2)[C@H]2C(=O)OC(=O)[C@@H]42)S1`, for which the GI50 in the test with Hs-578T, with A498, in the test on NCI-H522, in the test with SN12C, in the test on MDA-MB-435 and with COLO 205 was > 100 µM (inactive) in each case. Also, the GI50 with 786-0, with OVCAR-8, with CAKI-1, in the test on Malme-3M, with SNB-19 and in the test with LOX IMVI was > 100 µM (inactive) in each case. The GI50 with UACC-257, with SF-539, with SF-295, in the test with KM12, with IGROV-1 and in the test on U-251 was > 100 µM (inactive) each time. The GI50 in the test with TK-10 was > 100 µM (inactive).

On to `O=C(NCCCNCCCCNCCCNC(=O)C(F)(F)F)C(F)(F)F`, for which the GI50 with Hs-578T is > 100 µM (inactive); in the test on A498 it was > 100 µM (inactive); with NCI-H522 it was > 100 µM (inactive); in the test on SN12C, 52.6 µM (inactive); in the test with MDA-MB-435, > 100 µM (inactive); in the test on COLO 205, > 100 µM (inactive). Further, the GI50 with 786-0 was > 100 µM (inactive); in the test on OVCAR-8, > 100 µM (inactive); with CAKI-1, 20 µM (inactive); with Malme-3M it was > 100 µM (inactive); in the test on LOX IMVI it was > 100 µM (inactive); in the test with UACC-257 it was > 100 µM (inactive). Besides, the GI50 in the test on SF-539, in the test with SF-295, in the test with KM12, in the test on IGROV-1, in the test on U-251 and in the test with TK-10 was > 100 µM (inactive) in each case.

With `CN(C)/C=C/c1ccnc2c1C(=O)c1ccccc1C2=O`, the GI50 in the test on Hs-578T was 2.78 µM (inactive); in the test on A498, 31.9 µM (inactive); in the test with NCI-H522, 8.51 µM (inactive); in the test on SN12C, 5.2 µM (inactive); with MDA-MB-435, 1.35 µM (inactive); in the test with COLO 205, 24.9 µM (inactive). For the same compound, the GI50 in the test with 786-0 is 17.2 µM (inactive); in the test on OVCAR-8 it was 15.5 µM (inactive); with CAKI-1 it was 16.3 µM (inactive); in the test with Malme-3M, 2.03 µM (inactive); in the test on SNB-19, 5.89 µM (inactive); with LOX IMVI, 2.79 µM (inactive). Further, the GI50 was 2.25 µM (inactive) in the test on UACC-257; 12.9 µM (inactive) with SF-539; 4.56 µM (inactive) with SF-295; 9.66 µM (inactive) in the test with KM12; 12.2 µM (inactive) with IGROV-1; 15.2 µM (inactive) with U-251. Further, the GI50 with TK-10 was > 92.7 µM (inactive).

For the compound `O=C1/C(=C/c2ccc([N+](=O)[O-])cc2)Sc2scc(-c3cccc([N+](=O)[O-])c3)[n+]21`, the GI50 in the test with Hs-578T is 8.81 µM (inactive); in the test on A498 it was 3.13 µM (inactive); with NCI-H522 it was 0.973 µM (active); in the test with SN12C, 4.1 µM (inactive); with MDA-MB-435 it was 5.46 µM (inactive); in the test with COLO 205 it was 1.85 µM (inactive). Besides, the GI50 with 786-0 was 1.79 µM (inactive); in the test on OVCAR-8, 6.11 µM (inactive); in the test with CAKI-1, 2.8 µM (inactive); in the test with Malme-3M, 1.33 µM (inactive); in the test with SNB-19, 14.8 µM (inactive); with LOX IMVI, 2.41 µM (inactive). The GI50 in the test with UACC-257 was 5.32 µM (inactive); in the test with SF-539, 2.37 µM (inactive); in the test on SF-295, 14.2 µM (inactive); in the test on KM12, 10.8 µM (inactive); in the test with IGROV-1 it was 2.91 µM (inactive); with U-251, 10.7 µM (inactive). Further, the GI50 with TK-10 is 5.18 µM (inactive).
